Source: US20260049337A1, “A R[…] A[…] OF INHIBITING TUMOR P[…] […] TIME IN TUMOR-BEARING I[…] USE THEREOF” (NANJING VIROTHER BIOPHARMACEUTICAL CO., LTD., priority 2022, published 2026)

How the values were obtained:
[1] = tested on: LCN2 expression in CD8+ T cells; assay: Panc02 cells cocultured with CD8+ T cells, flow cytometry for LCN2; format: cell-based; settings: coculture with Panc02 for 24 h; vs coculture without GLP1(7-36), p<0.01
Procedure: Panc02 cells were cocultured with CD8+ T cells with or without GLP1(7-36) for 24 h, then T cells were subjected to flow cytometry for determination of LCN2 expression (FIG. 28A).

[2] = tested on: LCN2 expression in CD8+ T cells; assay: CD8+ T cells cultivated with Panc02 supernatant, FACScan for Lcn2; format: cell-based; settings: 24 h, vs absence of agonist, p<0.001
Procedure: Panc02 cells were cultivated in DMEM for 48 h, then supernatant was harvested and added into CD8+ T cells for further 24 h cultivation in the presence or absence of GLP1(7-36) or GLP1 analogue (Liraglutide) followed by FACScan for Lcn2 determination (FIG. VI(B)-3B).

GLP-1(7-36): GLP-1 receptor agonist peptide, SEQ ID NO: 1, HAEGTFTSDVSSYLEGQAAKEFIAWLVKGR
Lcn2 expression in CD8+ T cells [1]: statistically significantly reduced
Lcn2 expression in CD8+ T cells [2]: statistically significantly reduced
